Test results as given in US5451581A, “Antibiotic LL-14E605β and O-methyl-LL-14E605β” (priority 1993, dated 1995).

Key:
[1] = Relative activity of the components of the LL-14E605 complex; details: listed as LL-14E605β
[2] = tested on: Pseudomanas aeruginosa (ATCC 27853); test: In vitro antibacterial activity, standard agar dilution (MIC); assay type: cell-based; details: Mueller-Hinton agar, about 18 hours, approximately 35° C.
Procedure: (§1) The in vitro antibacterial activity of LL-14E605β and O-methyl-LL-14E605β is determined against a spectrum of gram positive and gram-negative bacteria by a standard agar dilution method. Mueller-Hinton agar containing two fold decreasing concentrations of the antibiotics is poured into petri plates. The agar surfaces are inoculated with 1 to 5×10^4 colony forming units of bacteria by means of a Steer's replicating device. The lowest concentration of the LL-14E605 antibiotics that inhibits growth of a bacterial strain after about 18 hours of incubation at approximately 35° C. is recorded as the minimal inhibitory concentration (MIC) for that strain.

[3] = tested on: Enterococcus faecium (ID-3301); test: as above; assay type: cell-based; details: Mueller-Hinton agar, about 18 hours, approximately 35° C.
Procedure: as §1

[4] = tested on: Staphylococcus aureus (NEMC-89-4); test: as above; assay type: cell-based; details: Mueller-Hinton agar, about 18 hours, approximately 35° C.
Procedure: as §1

[5] = tested on: Staphylococcus aureus (ATCC 29213); test: as above; assay type: cell-based; details: Mueller-Hinton agar, about 18 hours, approximately 35° C.
Procedure: as §1

[6] = tested on: Staphylococcus aureus (4379); test: as above; assay type: cell-based; details: Mueller-Hinton agar, about 18 hours, approximately 35° C.
Procedure: as §1

[7] = tested on: Enterococcus faecalis (ID-1829); test: as above; assay type: cell-based; details: Mueller-Hinton agar, about 18 hours, approximately 35° C.
Procedure: as §1

[8] = tested on: Staphylococcus aureus (SMITH); test: as above; assay type: cell-based; details: Mueller-Hinton agar, about 18 hours, approximately 35° C.
Procedure: as §1

Escherichia coli (J2175) = test: as above; assay type: cell-based; details: Mueller-Hinton agar, about 18 hours, approximately 35° C.
Procedure: as §1

[9] = tested on: Staphylococcus aureus (ID-2727); test: as above; assay type: cell-based; details: Mueller-Hinton agar, about 18 hours, approximately 35° C.
Procedure: as §1

Escherichia coli (J2445) = test: as above; assay type: cell-based; details: Mueller-Hinton agar, about 18 hours, approximately 35° C.
Procedure: as §1

[10] = tested on: Staphylococcus, coagiuase negative (ID-4615); test: as above; assay type: cell-based; details: Mueller-Hinton agar, about 18 hours, approximately 35° C.
Procedure: as §1

Bacillus cereus (Bacto) = test: as above; assay type: cell-based; details: Mueller-Hinton agar, about 18 hours, approximately 35° C.
Procedure: as §1

[11] = tested on: Enterococcus avium (ID-3953); test: as above; assay type: cell-based; details: Mueller-Hinton agar, about 18 hours, approximately 35° C.
Procedure: as §1

[12] = tested on: Staphylococcus aureus (ID-2371); test: as above; assay type: cell-based; details: Mueller-Hinton agar, about 18 hours, approximately 35° C.
Procedure: as §1

[13] = tested on: Micrococcus luteus (ATCC 9341); test: as above; assay type: cell-based; details: Mueller-Hinton agar, about 18 hours, approximately 35° C.
Procedure: as §1

[14] = tested on: Escherichia coli (ATCC 25922); test: as above; assay type: cell-based; details: Mueller-Hinton agar, about 18 hours, approximately 35° C.
Procedure: as §1

[15] = tested on: Enterococcus faecalis (12201); test: as above; assay type: cell-based; details: Mueller-Hinton agar, about 18 hours, approximately 35° C.
Procedure: as §1

[16] = tested on: Enterococcus faecium (ID-4133); test: as above; assay type: cell-based; details: Mueller-Hinton agar, about 18 hours, approximately 35° C.
Procedure: as §1

[17] = tested on: Enterococcus faecium (12202); test: as above; assay type: cell-based; details: Mueller-Hinton agar, about 18 hours, approximately 35° C.
Procedure: as §1

[18] = tested on: Staphylococcus, coagluase negative (ID-3135); test: as above; assay type: cell-based; details: Mueller-Hinton agar, about 18 hours, approximately 35° C.
Procedure: as §1

[19] = tested on: Staphylococcus hemolyticus (ID 4061); test: as above; assay type: cell-based; details: Mueller-Hinton agar, about 18 hours, approximately 35° C.
Procedure: as §1

[20] = tested on: Staphylococcus, coagluase negative (ID-3120); test: as above; assay type: cell-based; details: Mueller-Hinton agar, about 18 hours, approximately 35° C.
Procedure: as §1

[21] = tested on: Staphylococcus, coagluase negative (ID-3276); test: as above; assay type: cell-based; details: Mueller-Hinton agar, about 18 hours, approximately 35° C.
Procedure: as §1

[22] = tested on: Enterococcus faecalis (ATCC 29212); test: as above; assay type: cell-based; details: Mueller-Hinton agar, about 18 hours, approximately 35° C.
Procedure: as §1

[23] = tested on: Staphylococcus, coagluase negative (ID-3941); test: as above; assay type: cell-based; details: Mueller-Hinton agar, about 18 hours, approximately 35° C.
Procedure: as §1

[24] = tested on: Enterococcus faecalis (ID-4168); test: as above; assay type: cell-based; details: Mueller-Hinton agar, about 18 hours, approximately 35° C.
Procedure: as §1

[25] = tested on: Enterococcus faecalis (ID-2131); test: as above; assay type: cell-based; details: Mueller-Hinton agar, about 18 hours, approximately 35° C.
Procedure: as §1

[26] = tested on: Morganella morganii (VGH 84-11); test: as above; assay type: cell-based; details: Mueller-Hinton agar, about 18 hours, approximately 35° C.
Procedure: as §1

[27] = tested on: Staphylococcus aureus (ID-3105); test: as above; assay type: cell-based; details: Mueller-Hinton agar, about 18 hours, approximately 35° C.
Procedure: as §1

| SMILES | Minimal Inhibitory Concentration (MIC) [2] | Minimal Inhibitory Concentration (MIC) [3] | Minimal Inhibitory Concentration (MIC) [4] | Minimal Inhibitory Concentration (MIC) [5] | Minimal Inhibitory Concentration (MIC) [6] | Minimal Inhibitory Concentration (MIC) [7] | Minimal Inhibitory Concentration (MIC) [8] | Minimal Inhibitory Concentration (MIC) (Escherichia coli (J2175)) | Minimal Inhibitory Concentration (MIC) [9] | Minimal Inhibitory Concentration (MIC) (Escherichia coli (J2445)) | Minimal Inhibitory Concentration (MIC) [10] | Minimal Inhibitory Concentration (MIC) (Bacillus cereus (Bacto)) | Minimal Inhibitory Concentration (MIC) [11] | Minimal Inhibitory Concentration (MIC) [12] | Minimal Inhibitory Concentration (MIC) [13] | Minimal Inhibitory Concentration (MIC) [14] | Minimal Inhibitory Concentration (MIC) [15] | Minimal Inhibitory Concentration (MIC) [16] | Minimal Inhibitory Concentration (MIC) [17] | Minimal Inhibitory Concentration (MIC) [18] | further results |
| --- | --- | --- | --- | --- | --- | --- | --- | --- | --- | --- | --- | --- | --- | --- | --- | --- | --- | --- | --- | --- | --- |
| COC(C)=C1NC(=O)C(C(C)O)NC(=O)c2csc(n2)-c2cc(O)c(-c3nc(C(N)=O)cs3)nc2-c2csc(n2)C2CSC(=O)c3[nH]c4cccc5c4c3COC(C(OC3CC(C)(O)C(N(C)C)C(C)O3)C(=O)OC5)C(NC(=O)c3csc1n3)c1nc(cs1)C(=O)N2 (stereo not drawn) [LL-14E605-beta] | > 64 µg/mL | 0.015 µg/mL | 0.015 µg/mL | 0.015 µg/mL | 0.015 µg/mL | 0.002 µg/mL | 0.008 µg/mL | > 64 µg/mL | 0.008 µg/mL | 0.06 µg/mL | 0.015 µg/mL | 0.06 µg/mL | 0.002 µg/mL | 0.015 µg/mL | 0.002 µg/mL | > 64 µg/mL | 0.015 µg/mL | ≤ 0.005 µg/mL | 0.004 µg/mL | 0.03 µg/mL | activity relative to the other components of the LL-14E605 complex [1]: most active component of the LL-14E605 complex; Minimal Inhibitory Concentration (MIC) [19]: 0.03 µg/mL; Minimal Inhibitory Concentration (MIC) [20]: 0.06 µg/mL; Minimal Inhibitory Concentration (MIC) [21]: 0.008 µg/mL; Minimal Inhibitory Concentration (MIC) [22]: 0.015 µg/mL; Minimal Inhibitory Concentration (MIC) [23]: 0.06 µg/mL; Minimal Inhibitory Concentration (MIC) [24]: 0.015 µg/mL; Minimal Inhibitory Concentration (MIC) [25]: 0.015 µg/mL; Minimal Inhibitory Concentration (MIC) [26]: > 64 µg/mL; Minimal Inhibitory Concentration (MIC) [27]: 0.015 µg/mL |
| COC(C)=C1NC(=O)C(C(C)O)NC(=O)c2csc(n2)-c2cc(OC)c(-c3nc(C(N)=O)cs3)nc2-c2csc(n2)C2CSC(=O)c3[nH]c4cccc5c4c3COC(C(OC3CC(C)(O)C(N(C)C)C(C)O3)C(=O)OC5)C(NC(=O)c3csc1n3)c1nc(cs1)C(=O)N2 [O-methyl-L-14E605beta] | > 32 µg/mL | 8 µg/mL | 0.5 µg/mL | 0.25 µg/mL | 0.25 µg/mL | 8 µg/mL | 0.25 µg/mL | > 32 µg/mL | 0.25 µg/mL | > 32 µg/mL | 0.25 µg/mL | 0.5 µg/mL | 8 µg/mL | 0.5 µg/mL | 0.5 µg/mL | > 32 µg/mL | 4 µg/mL | 8 µg/mL | 8 µg/mL | 1 µg/mL | Minimal Inhibitory Concentration (MIC) [19]: 1 µg/mL; Minimal Inhibitory Concentration (MIC) [20]: 1 µg/mL; Minimal Inhibitory Concentration (MIC) [21]: 0.5 µg/mL; Minimal Inhibitory Concentration (MIC) [22]: 8 µg/mL; Minimal Inhibitory Concentration (MIC) [23]: 4 µg/mL; Minimal Inhibitory Concentration (MIC) [24]: 8 µg/mL; Minimal Inhibitory Concentration (MIC) [25]: 4 µg/mL; Minimal Inhibitory Concentration (MIC) [26]: > 32 µg/mL; Minimal Inhibitory Concentration (MIC) [27]: 0.25 µg/mL |
